Reference: US8455665B2, “3-phenoxymethylpyrrolidine compounds” (Theravance, Inc., priority 2009, dated 2013)
Where two headings read alike, the source gives them in different places. Marks after values point to notes of the source that are not given here.

Key:
SERT = SERT (Homo sapiens, UniProt P31645); test: fluorescence-based serotonin uptake assay (Tsuruda et al. 2010); format: cell-based
NET = NET (Homo sapiens, UniProt P23975); test: fluorescence-based norepinephrine uptake assay (Tsuruda et al. 2010); format: cell-based
[1] = serotonin reuptake inhibition, fluorescence-based assay (data indicated by an asterisk), read-out: SERT pIC50 (converted)
[2] = norepinephrine reuptake inhibition, fluorescence-based assay (data indicated by an asterisk), read-out: NET pIC50 (converted)
[3] = serotonin reuptake inhibition, fluorescence-based assay (data indicated by an asterisk)
[4] = norepinephrine reuptake inhibition, fluorescence-based assay (data indicated by an asterisk)

SERT, sequence (P31645 whole entry, species assumed): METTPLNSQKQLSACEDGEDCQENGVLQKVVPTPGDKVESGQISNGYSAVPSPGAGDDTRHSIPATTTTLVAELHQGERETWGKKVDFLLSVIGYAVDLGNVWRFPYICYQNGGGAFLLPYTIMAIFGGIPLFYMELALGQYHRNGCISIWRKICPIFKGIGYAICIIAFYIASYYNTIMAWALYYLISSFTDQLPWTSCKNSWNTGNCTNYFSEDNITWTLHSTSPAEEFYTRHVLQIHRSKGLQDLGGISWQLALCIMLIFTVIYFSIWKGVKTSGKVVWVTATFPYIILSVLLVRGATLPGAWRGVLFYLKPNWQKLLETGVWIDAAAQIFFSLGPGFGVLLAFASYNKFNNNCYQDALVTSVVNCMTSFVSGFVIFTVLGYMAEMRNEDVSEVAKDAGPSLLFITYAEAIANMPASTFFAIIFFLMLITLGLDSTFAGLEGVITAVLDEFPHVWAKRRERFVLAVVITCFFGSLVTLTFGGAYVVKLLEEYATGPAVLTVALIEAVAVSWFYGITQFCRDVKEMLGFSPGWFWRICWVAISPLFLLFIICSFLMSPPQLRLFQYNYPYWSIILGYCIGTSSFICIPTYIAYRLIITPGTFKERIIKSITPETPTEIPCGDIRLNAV
NET, sequence (P23975 whole entry): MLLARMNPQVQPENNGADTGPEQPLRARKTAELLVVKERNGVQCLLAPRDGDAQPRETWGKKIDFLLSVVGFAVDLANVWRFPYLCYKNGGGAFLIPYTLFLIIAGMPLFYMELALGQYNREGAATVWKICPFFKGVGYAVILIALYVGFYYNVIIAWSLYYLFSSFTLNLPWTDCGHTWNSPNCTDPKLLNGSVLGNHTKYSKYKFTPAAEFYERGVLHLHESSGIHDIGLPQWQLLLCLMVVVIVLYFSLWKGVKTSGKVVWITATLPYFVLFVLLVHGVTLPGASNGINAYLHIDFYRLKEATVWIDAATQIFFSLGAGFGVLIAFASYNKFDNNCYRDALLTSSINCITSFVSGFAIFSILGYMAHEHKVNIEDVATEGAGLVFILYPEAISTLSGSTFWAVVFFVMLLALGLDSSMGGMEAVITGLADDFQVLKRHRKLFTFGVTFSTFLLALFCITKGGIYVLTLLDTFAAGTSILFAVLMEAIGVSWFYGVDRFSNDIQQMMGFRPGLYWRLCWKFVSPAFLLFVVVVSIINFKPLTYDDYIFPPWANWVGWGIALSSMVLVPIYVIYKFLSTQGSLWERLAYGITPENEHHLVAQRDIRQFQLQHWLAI

IC50 (SERT; [1]) [nM] | IC50 (NET; [2]) [nM] | Compound | SERT pIC50 (SERT; [3]) | NET pIC50 (NET; [4]) | further results
≤ 10 | ≤ 100 | CC(C)SC[C@@H](Oc1ccc(Cl)cc1Cl)[C@H]1CCNC1 [Example 19-5, (S)-3-[(S)-1-(2,4-Dichlorophenoxy)-2-isopropylsulfanylethyl]pyrrolidine] | – | – | –
– | – | CCSC[C@H](Oc1ccc(Cl)cc1Cl)[C@H]1CCNC1.O=C(O)C(F)(F)F [Example 17-7] | ≧8.0* | ≧8.0* | –
≤ 10 | ≤ 10 | CCOC[C@H](Oc1ccc(C(F)(F)F)cc1Cl)[C@H]1CCNC1 [Example 7-19, (S)-3-[(R)-1-(2-Chloro-4-trifluoromethylphenoxy)-2-ethoxyethyl]pyrrolidine] | – | – | –
– | – | CSC[C@@H](Oc1cccc(Cl)c1C(F)(F)F)[C@H]1CCNC1.O=C(O)C(F)(F)F [Example 15-8] | ≧8.0* | ≧7.0* | –
≤ 10 | ≤ 10 | CCOC[C@H](Oc1ccc(Cl)cc1Cl)[C@H]1CCNC1 [Example 6, (S)-3-[(R)-1-(2,4-Dichlorophenoxy)-2-ethoxyethyl]pyrrolidine] | – | – | –
– | – | CCSC[C@H](Oc1ccc(Cl)cc1)[C@H]1CCNC1.O=C(O)C(F)(F)F [Example 17-10] | ≧8.0* | ≧8.0* | –
≤ 10 | ≤ 10 | CC(C)SC[C@H](Oc1cccc(Cl)c1C(F)(F)F)[C@H]1CCNC1 [Example 18, (S)-3-[(R)-1-(3-Chloro-2-trifluoromethylphenoxy)-2-isopropylsulfanylethyl]pyrrolidine] | – | – | –
≤ 10 | ≤ 100 | CCOC[C@@H](Oc1ccc(C#N)cc1Cl)[C@@H]1CCNC1 (stereo in doubt) [Example 7-20, 3-Chloro-4-((R)-2-ethoxy-1-(S)-pyrrolidin-3-ylethoxy)benzonitrile] | – | – | –
– | – | CSC[C@@H](Oc1cccc(Cl)c1Cl)[C@H]1CCNC1.O=C(O)C(F)(F)F [Example 15-2] | ≧8.0* | ≧8.0* | –
≤ 100 | ≤ 100 | CC(C)OC[C@H](Oc1cccc(C(F)(F)F)c1)[C@H]1CCNC1 [Example 9-4, (S)-3-[(R)-2-Isopropoxy-1-(3-trifluoromethylphenoxy)ethyl]pyrrolidine] | – | – | –
≤ 10 | ≤ 10 | Cc1cc(Cl)ccc1O[C@H](CO)[C@@H]1CCNC1 (stereo in doubt) [Example 1, (R)-2-(4-Chloro-2-methylphenoxy)-2-(S)-pyrrolidin-3-yl-ethanol] | – | – | –
– | – | CSC[C@@H](Oc1cccc(C(F)(F)F)c1)[C@H]1CCNC1.O=C(O)C(F)(F)F [Example 15-10] | ≧7.0* | ≧7.0* | –
≤ 100 | ≤ 10 | CCOC[C@H](Oc1c(Cl)ccc(Cl)c1F)[C@H]1CCNC1 [Example 7-32, (S)-3-[(R)-1-(3,6-Dichloro-2-fluorophenoxy)-2-ethoxyethyl]pyrrolidine] | – | – | –
≤ 10 | ≤ 10 | CC(C)SC[C@H](Oc1cccc(F)c1Cl)[C@H]1CCNC1 [Example 19-3, (S)-3-[(R)-1-(2-Chloro-3-fluorophenoxy)-2-isopropylsulfanylethyl]pyrrolidine] | – | – | –
≤ 10 | ≤ 10 | CSC[C@H](Oc1ccc(Cl)cc1C)[C@H]1CCNC1 [Example 14, (S)-3-[(R)-1-(4-Chloro-2-methylphenoxy)-2-methylsulfanylethyl]pyrrolidine] | – | – | –
– | – | CCSC[C@@H](Oc1cccc(Cl)c1C(F)(F)F)[C@H]1CCNC1.O=C(O)C(F)(F)F [Example 17-14] | ≧8.0* | ≧7.0* | –
≤ 10 | ≤ 10 | Cc1c(Cl)cccc1OC(COCc1ccccc1)C1CCNC1 [Example 10-5, ((S)-3-[(R)-2-Benzyloxy-1-(3-chloro-2-methylphenoxy)ethyl]pyrrolidine] | – | – | –
– | – | CCSC[C@@H](Oc1cccc(F)c1Cl)[C@H]1CCNC1.O=C(O)C(F)(F)F [Example 17-4] | ≧8.0* | ≧8.0* | –
– | – | CSC[C@@H](Oc1cccc(F)c1Cl)[C@H]1CCNC1.O=C(O)C(F)(F)F [Example 15-4] | ≧8.0* | ≧8.0* | –
≤ 10 | ≤ 100 | CC(C)OC[C@@H](Oc1ccc(Cl)cc1Cl)[C@H]1CCNC1 [Example 9-23, (S)-3-[(S)-1-(2,4-Dichlorophenoxy)-2-isopropoxyethyl]pyrrolidine] | – | – | –
– | – | CCSC[C@@H](Oc1cccc(Cl)c1C)[C@H]1CCNC1.O=C(O)C(F)(F)F [Example 17-6] | ≧8.0* | ≧8.0* | –
≤ 100 | ≤ 10 | CCOC[C@H](Oc1cccc(F)c1F)[C@H]1CCNC1 [Example 7-11, (S)-3-[(R)-1-(2,3-Difluorophenoxy)-2-ethoxyethyl]pyrrolidine] | – | – | –
≤ 10 | ≤ 10 | Cc1c(Cl)cccc1O[C@@H](COC(C)C)[C@H]1CCNC1 [Example 9-16, (S)-3-[(R)-1-(3-Chloro-2-methylphenoxy)-2-isopropoxyethyl]pyrrolidine] | – | – | –

IC50 (SERT; [1]) [nM] | IC50 (NET; [2]) [nM] | Compound | SERT pIC50 (SERT; [3]) | NET pIC50 (NET; [4]) | further results
≤ 100 | ≤ 10 | CC(C)OCC(Oc1cccc(Cl)c1C(F)(F)F)C1CCNC1 [Example 9-20, (S)-3-[(R)-1-(3-Chloro-2-trifluoromethyl-phenoxy)-2-isopropoxycthyl]pyrrolidine] | – | – | –
≤ 100 | ≤ 100 | CCOC[C@H](Oc1cccc(C(F)(F)F)c1F)[C@H]1CCNC1 [Example 7-12, (S)-3-[(R)-2-Ethoxy-1-(2-fluoro-3-trifluoromethylphenoxy)ethyl]pyrrolidine] | – | – | –
≤ 100 | ≤ 10 | CCOC[C@H](Oc1cc(Cl)cc(Cl)c1)[C@H]1CCNC1 [Example 7-27, (S)-3-[(R)-1-(3,5-Dichlorophenoxy)-2-ethoxyethyl]pyrrolidine] | – | – | –
– | – | Cc1cc(Cl)ccc1O[C@@H](COCc1ccccc1)[C@H]1CCNC1.O=C(O)C(F)(F)F [Prep 3] | ≧8.0* | ≧8.0* | –
– | – | CCSC[C@H](Oc1ccc(C(F)(F)F)cc1)[C@H]1CCNC1.O=C(O)C(F)(F)F [Example 17-11] | ≧8.0* | ≧8.0* | –
– | – | Clc1ccccc1O[C@@H](COCc1ccccc1)[C@H]1CCNC1 [Example 10-1] | ≧7.0* | ≧8.0* | –
≤ 10 | ≤ 10 | CCOC[C@@H](Oc1cccc(F)c1Cl)[C@H]1CCNC1 [Example 7-10, (S)-3-[(S)-1-(2-Chloro-3-fluorophenoxy)-2-ethoxyethyl]pyrrolidine] | – | – | –
≤ 10 | ≤ 10 | CC(C)SC[C@@H](Oc1cccc(Cl)c1C(F)(F)F)[C@H]1CCNC1 [Example 19-6, (S)-3-[(S)-1-(3-Chloro-2-trifluoromethylphenoxy)-2-isopropylsulfanylethyl]pyrrolidine] | – | – | –
≤ 10 | ≤ 10 | CC(C)OC[C@@H](Oc1cccc(Cl)c1Cl)[C@H]1CCNC1 [Example 9-8, (S)-3-[(S)-1-(2,3-Dichlorophenoxy)-2-isopropoxyethyl]pyrrolidine] | – | – | –
≤ 100 | ≤ 10 | CC(C)OC[C@H](Oc1c(Cl)cccc1Cl)[C@H]1CCNC1 [Example 9-29, (S)-3-[(R)-1-(2,6-Dichlorophenoxy)-2-isopropoxyethyl]pyrrolidine] | – | – | –
≤ 10 | ≤ 10 | CC(C)SC[C@H](Oc1ccc(Cl)c(Cl)c1)[C@H]1CCNC1 [Example 19-7, (S)-3-[(R)-1-(3,4-Dichlorophenoxy)-2-isopropylsulfanylethyl]-pyrrolidine] | – | – | –
≤ 10 | ≤ 10 | CC(C)SC[C@@H](Oc1cccc(Cl)c1Cl)[C@H]1CCNC1 [Example 19-2, (S)-3-[(S)-1-(2,3-Dichlorophenoxy)-2-isopropylsulfanylethyl]pyrrolidine] | – | – | –
≤ 10 | ≤ 10 | CCOC[C@H](Oc1ccc(Cl)cc1F)[C@H]1CCNC1 [Example 7-21, (S)-3-[(R)-1-(4-Chloro-2-fluorophenoxy)-2-ethoxyethyl]pyrrolidine] | – | – | –
– | – | CCOC[C@@H](Oc1ccc(C#N)c(Cl)c1)[C@@H]1CCNC1 (stereo in doubt) [Example 7-25, 2-Chloro-4-((R)-2-ethoxy-1-(S)-pyrrolidin-3-ylethoxy)benzonitrile] | – | – | IC50 (SERT): ≤ 10 nM; IC50 (NET): ≤ 100 nM
≤ 10 | ≤ 100 | CC(C)OC[C@@H](Oc1cccc(C(F)(F)F)c1)[C@H]1CCNC1 [Example 9-3, (S)-3-[(S)-2-Isopropoxy-1-(3-trifluoromethylphenoxy)ethyl]pyrrolidine] | – | – | –
≤ 10 | ≤ 10 | CC(C)OC[C@H](Oc1cccc(Cl)c1Cl)[C@H]1CCNC1 [Example 9-7, (S)-3-[(R)-1-(2,3-Dichlorophenoxy)-2-isopropoxyethyl]pyrrolidine] | – | – | –
≤ 10 | ≤ 10 | CCOC[C@H](Oc1ccc(Cl)cc1C(F)(F)F)[C@H]1CCNC1 [Example 7-23, (S)-3-[(R)-1-(4-Chloro-2-trifluoromethylphenoxy)-2-ethoxyethyl]pyrrolidine] | – | – | –
– | – | CSC[C@H](Oc1ccc(Cl)cc1Cl)[C@H]1CCNC1.O=C(O)C(F)(F)F [Example 15-11] | ≧8.0* | ≧8.0* | –
≤ 100 | ≤ 100 | CCOC[C@@H](Oc1cccc(C(F)(F)F)c1)[C@H]1CCNC1 [Example 7-3, (S)-3-[(S)-2-Ethoxy-1-(3-trifluoromethylphenoxy)ethyl]pyrrolidine] | – | – | –
– | – | CSC[C@H](Oc1cccc(C(F)(F)F)c1)[C@H]1CCNC1.O=C(O)C(F)(F)F [Example 15-9] | ≧7.0* | ≧7.0* | –
≤ 10 | ≤ 10 | Clc1cccc(OC(COCc2ccccc2)C2CCNC2)c1Cl [Example 10-2, ((S)-3-[(R)-2-Benzyloxy-1-(2,3-dichlorophenoxy)ethyl]pyrrolidine] | – | – | –
≤ 100 | ≤ 10 | CCOC[C@H](Oc1c(F)ccc(F)c1Cl)[C@H]1CCNC1 [Example 7-30, (S)-3-[(R)-1-(2-Chloro-3,6-difluorophenoxy)-2-ethoxyethyl]pyrrolidine] | – | – | –
